The values that follow come from the CheMixHub ionic liquid set.

± gives the uncertainty stated by the source.

The nature of this data set: xn = mol fraction of the nth substance listed.

For the compound `CC#N` + CCCC[P+](CCCC)(CCCC)CCCC.F[B-](F)(F)F, the viscosity is, setting by setting: (293.15 K, 100 kPa, x2 = 0) 0.354 ± 0.021 mPa·s; (298.15 K, 100 kPa, x2 = 0) 0.338 ± 0.02 mPa·s; (303.15 K, 100 kPa, x2 = 0) 0.324 ± 0.02 mPa·s; (308.15 K, 100 kPa, x2 = 0) 0.31 ± 0.019 mPa·s; (313.15 K, 100 kPa, x2 = 0) 0.298 ± 0.018 mPa·s; (318.15 K, 100 kPa, x2 = 0) 0.286 ± 0.017 mPa·s.

On to `CCCC[n+]1ccn(C)c1.O=S(=O)([N-]S(=O)(=O)C(F)(F)F)C(F)(F)F` + CC1CCC(=O)O1, for which the electrical conductivity turned out to be 0.337 ± 0.013 S/m (293.15 K, 100 kPa, frequency 0.01 MHz, x1 = 1); 0.4 ± 0.016 S/m (298.15 K, 100 kPa, frequency 0.01 MHz, x1 = 1); 0.472 ± 0.019 S/m (303.15 K, 100 kPa, frequency 0.01 MHz, x1 = 1); 0.552 ± 0.022 S/m (308.15 K, 100 kPa, frequency 0.01 MHz, x1 = 1); 0.64 ± 0.026 S/m (313.15 K, 100 kPa, frequency 0.01 MHz, x1 = 1); 0.733 ± 0.029 S/m (318.15 K, 100 kPa, frequency 0.01 MHz, x1 = 1). Besides, for the setting “323.15 K, 100 kPa, frequency 0.01 MHz, x1 = 1”, the electrical conductivity worked out at 0.835 ± 0.033 S/m.

Turning to `CN(C)C=O` + CC[n+]1ccn(C)c1.F[B-](F)(F)F, the viscosity reads like this: (313.15 K, 101 kPa, x1 = 1) 0.667 ± 0.009 mPa·s; (333.15 K, 101 kPa, x1 = 1) 0.541 ± 0.007 mPa·s.

With `CCCCCC[n+]1ccn(C)c1.F[P-](F)(F)(F)(F)F` + CCCCCC[n+]1ccn(C)c1.[Cl-], the electrical conductivity is, setting by setting: (303 K, 101 kPa, x2 = 0.6) 0.0103 ± 0.00084 S/m; (303 K, 101 kPa, x2 = 0.8) 0.00536 ± 0.00045 S/m; (308 K, 101 kPa, x2 = 0.4) 0.0299 ± 0.0024 S/m; (308 K, 101 kPa, x2 = 0.8) 0.00862 ± 0.00071 S/m; (313 K, 101 kPa, x2 = 0) 0.13 ± 0.01 S/m; (313 K, 101 kPa, x2 = 0.4) 0.0424 ± 0.0034 S/m. Moreover, the electrical conductivity (318 K, 101 kPa, x2 = 0.6) worked out at 0.0337 ± 0.0027 S/m; the electrical conductivity (328 K, 101 kPa, x2 = 0) was 0.26 ± 0.021 S/m; the electrical conductivity (328 K, 101 kPa, x2 = 0.8) worked out at 0.0419 ± 0.0034 S/m. Moreover, the viscosity worked out at 960 ± 300 mPa·s (303.15 K, 101 kPa, x2 = 0.2); 1853 ± 590 mPa·s (303.15 K, 101 kPa, x2 = 0.4); 360 ± 110 mPa·s (308.15 K, 101 kPa, x2 = 0); 600 ± 190 mPa·s (318.15 K, 101 kPa, x2 = 0.4); 710 ± 220 mPa·s (323.15 K, 101 kPa, x2 = 0.6); 205 ± 62 mPa·s (328.15 K, 101 kPa, x2 = 0.2).

In the case of `CN(C)C=O` + CCCC[n+]1ccn(C)c1.F[P-](F)(F)(F)(F)F, under “303.15 K, 101 kPa, x1 = 1”, the viscosity came to 0.82 ± 0.02 mPa·s.

`CCCC[P+](CCCC)(CCCC)CCCC.[O-]c1ccccn1` + O=C=O: the viscosity (293 K, 101 kPa, x2 = 0.5475) is 474 ± 59 mPa·s.

Compound `CCCC[n+]1ccn(C)c1.O=S(=O)([N-]S(=O)(=O)C(F)(F)F)C(F)(F)F` + CCCCCCCCCO showed a viscosity (298 K, 100 kPa, x1 = 1) of 49.7 ± 1.3 mPa·s.

`CCCCCC[n+]1ccn(C)c1.F[P-](F)(F)(F)(F)F` + O gave a viscosity (293.15 K, 101 kPa, x2 = 0.22) of 269 ± 36 mPa·s. This compound also yielded an electrical conductivity (295.15 K, 101 kPa, x2 = 0.22) of 0.1 ± 0.02 S/m.

Take `CN1CCCC1=O` + CCCC[n+]1ccn(C)c1.F[B-](F)(F)F: the viscosity reads like this: (298.15 K, 101 kPa, x1 = 1) 1.66 ± 0.21 mPa·s; (303.15 K, 101 kPa, x1 = 1) 1.49 ± 0.19 mPa·s; (308.15 K, 101 kPa, x1 = 1) 1.39 ± 0.18 mPa·s; (313.15 K, 101 kPa, x1 = 1) 1.31 ± 0.17 mPa·s; (323.15 K, 101 kPa, x1 = 1) 1.174 ± 0.015 mPa·s.

Regarding `CC#N` + C=C[n+]1ccn(CC(N)=O)c1.O=S(=O)([N-]S(=O)(=O)C(F)(F)F)C(F)(F)F, the viscosity (323.15 K, 100 kPa, x2 = 0) is recorded as 0.262 ± 0.053 mPa·s.

Compound `CCCC[n+]1ccn(C)c1.F[P-](F)(F)(F)(F)F` + OCCOCCOCCOCCO yielded a viscosity (298.15 K, 101 kPa, x2 = 0) of 254 ± 15 mPa·s.

In the case of `CN(C)C=O` + CCCCCCCCn1cc[n+](C)c1.N#C[S-], the viscosity is, setting by setting: (293.15 K, 101 kPa, x2 = 0) 0.881 ± 0.026 mPa·s; (303.15 K, 101 kPa, x2 = 0) 0.771 ± 0.023 mPa·s; (313.15 K, 101 kPa, x2 = 0) 0.668 ± 0.022 mPa·s; (323.15 K, 101 kPa, x2 = 0) 0.605 ± 0.021 mPa·s; (333.15 K, 101 kPa, x2 = 0) 0.553 ± 0.019 mPa·s; (353.15 K, 101 kPa, x2 = 0) 0.479 ± 0.015 mPa·s. The viscosity (363.15 K, 101 kPa, x2 = 0) worked out at 0.447 ± 0.014 mPa·s.

Consider `CCCC[n+]1ccn(C)c1.O=S(=O)([N-]S(=O)(=O)C(F)(F)F)C(F)(F)F` + N, for which the viscosity (313.2 K, 101 kPa, x1 = 1) turned out to be 27.3 ± 2.9 mPa·s.

`CCCC[n+]1ccn(C)c1.F[P-](F)(F)(F)(F)F` + CC(=O)c1ccccc1 yielded a viscosity (313.15 K, 100 kPa, x2 = 0) of 97 ± 19 mPa·s.

For the compound `CCCC[n+]1ccn(C)c1.O=S(=O)([N-]S(=O)(=O)C(F)(F)F)C(F)(F)F` + CN(C)c1ccccc1, the viscosity worked out at 78.4 ± 3.5 mPa·s (288.15 K, 100 kPa, x2 = 0); 61.5 ± 2.7 mPa·s (293.15 K, 100 kPa, x2 = 0); 49.1 ± 2.2 mPa·s (298.15 K, 100 kPa, x2 = 0); 39.9 ± 1.8 mPa·s (303.15 K, 100 kPa, x2 = 0); 33.2 ± 1.5 mPa·s (308.15 K, 100 kPa, x2 = 0); 27.7 ± 1.2 mPa·s (313.15 K, 100 kPa, x2 = 0). Further, the viscosity by setting is: (318.15 K, 100 kPa, x2 = 0) 23.5 ± 1 mPa·s; (323.15 K, 100 kPa, x2 = 0) 20.13 ± 0.89 mPa·s; (328.15 K, 100 kPa, x2 = 0) 17.39 ± 0.77 mPa·s; (333.15 K, 100 kPa, x2 = 0) 15.2 ± 0.67 mPa·s.

Take `CCCC[P+](C)(CCCC)CCCC.COS(=O)(=O)[O-]` + O: the viscosity (298.15 K, 100 kPa, x1 = 0.004192) was found to be 1.135 ± 0.024 mPa·s.

Turning to `CCOC(C)=O` + CCCC[n+]1ccn(C)c1.O=S(=O)([O-])C(F)(F)F, the viscosity (298.15 K, 100 kPa, x2 = 0) is recorded as 0.42 ± 0.08 mPa·s.

In turn, `CN(C)C=O` + CC[n+]1ccn(C)c1.O=S(=O)([O-])C(F)(F)F showed a viscosity (298.15 K, 100 kPa, x1 = 1) of 0.81 mPa·s.

The term viscosity denotes the resistance of a fluid to flow. A high value points to sluggish flow.
